Data reported in patent US11518739B2, “Sulfonamide carboxamide compounds” (Inflazome Limited, priority 2017, dated 2022).

Key:
NLRP3 [1] = molecular target: T1, NLRP3 (Homo sapiens, UniProt Q96P20); assay: THP-1 cells pyroptosis assay (LPS-primed, nigericin-triggered, resazurin readout); assay type: cell-based; design: Seed THP-1 cells (25,000 cells/well) containing 1.0 μg/ml LPS in 40 μl of RPMI medium; host or cells: THP-1 cells, LPS-primed, nigericin-triggered; conditions: NLRP3 inhibitory activity in THP-1 cells, 1.0 μg/ml LPS, 5 μM nigericin
T1 sequence (Q96P20 whole entry): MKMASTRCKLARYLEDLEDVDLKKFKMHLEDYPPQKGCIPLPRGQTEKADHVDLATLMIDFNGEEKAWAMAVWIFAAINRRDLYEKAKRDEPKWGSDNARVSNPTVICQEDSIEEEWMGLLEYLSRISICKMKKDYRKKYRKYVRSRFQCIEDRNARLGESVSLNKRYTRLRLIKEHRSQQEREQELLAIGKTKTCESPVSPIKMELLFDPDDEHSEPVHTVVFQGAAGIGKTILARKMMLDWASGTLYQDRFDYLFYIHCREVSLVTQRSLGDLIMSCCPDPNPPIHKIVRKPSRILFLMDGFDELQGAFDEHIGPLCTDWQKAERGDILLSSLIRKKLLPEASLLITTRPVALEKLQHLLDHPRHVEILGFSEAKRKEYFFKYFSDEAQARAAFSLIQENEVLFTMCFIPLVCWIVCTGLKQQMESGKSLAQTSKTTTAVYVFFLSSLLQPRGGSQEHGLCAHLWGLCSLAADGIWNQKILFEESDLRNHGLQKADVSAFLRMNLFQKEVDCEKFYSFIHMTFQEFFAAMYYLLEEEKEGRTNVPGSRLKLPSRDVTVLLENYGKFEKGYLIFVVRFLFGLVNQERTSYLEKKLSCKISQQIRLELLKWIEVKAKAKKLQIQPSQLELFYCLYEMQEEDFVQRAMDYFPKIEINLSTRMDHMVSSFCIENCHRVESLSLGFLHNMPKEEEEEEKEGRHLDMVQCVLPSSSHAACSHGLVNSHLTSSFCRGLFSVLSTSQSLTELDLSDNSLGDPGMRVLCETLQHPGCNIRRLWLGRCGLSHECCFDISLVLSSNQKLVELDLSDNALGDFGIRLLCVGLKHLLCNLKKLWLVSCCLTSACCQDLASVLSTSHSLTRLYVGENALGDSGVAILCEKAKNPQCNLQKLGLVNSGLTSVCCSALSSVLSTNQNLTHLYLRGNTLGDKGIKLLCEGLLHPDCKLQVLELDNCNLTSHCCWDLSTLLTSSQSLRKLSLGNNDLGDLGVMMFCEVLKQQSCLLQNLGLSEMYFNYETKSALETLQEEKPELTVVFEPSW
Method: THP-1 cells (ATCC #TIB-202) were grown in RPMI containing L-glutamine (Gibco #11835) supplemented with ImM sodium pyruvate (Sigma #S8636) and penicillin (100 units/ml)/streptomycin (0.1 mg/ml) (Sigma #P4333) in 10% Fetal Bovine Serum (FBS) (Sigma #F0804). The cells were routinely passaged and grown to confluency ([…]). On the day of the experiment, THP-1 cells were harvested and resuspended into RPMI medium (without FBS). The cells were then counted and viability (>90%) checked by Trypan blue (Sigma #T8154). Appropriate dilutions were made to give a concentration of 625,000 cells/ml. To this diluted cell solution was added LPS (Sigma #L4524) to give a 1 μg/ml Final Assay Concentration (FAC). […] of the final preparation was aliquoted into each well of a 96-well plate. The plate thus prepared was used for compound screening.
The following method step-by-step assay was followed for compound screening. • 1. Seed THP-1 cells (25,000 cells/well) containing 1.0 μg/ml LPS in 40 μl of RPMI medium (without FBS) in 96-well, black walled, clear bottom cell culture plates coated with poly-D-lysine (VWR #734-0317) • 2. Add 5 μl compound (8 points half-log dilution, with 10 μM top dose) or vehicle (DMSO 0.1% FAC) to the appropriate wells • 3. Incubate for 3 hrs at 37° C. in 5% CO2 • 4. Add 5 μl nigericin (Sigma #N7143) (FAC 5 μM) to all wells • 5. Incubate for 1 hr at 37° C. and 5% CO2 • 6. At the end of the incubation period, spin plates at 300×g for 3 mins and remove supernatant • 7. Then add 50 μl of resazurin (Sigma #R7017) (FAC 100 μM resazurin in RPMI medium without FBS) and incubate plates for a further 1-2 hrs at 37° C. and 5% CO2 • 8. Plates were read in an Envision reader at Ex 560 nm and Em 590 nm • 9. IC50 data is fitted to a non-linear regression equation (log inhibitor vs response-variable slope 4-parameters)

NLRP3 [2] = molecular target: T1, NLRP3; assay: Human whole blood IL-1β release assay (LPS + nigericin, AlphaLisa); assay type: cell-based; design: Plate out 80 μl of whole blood containing 1 μg/ml of LPS in 96-well, clear bottom cell culture plate; from tissue; host or cells: human whole blood from healthy donors (Li-heparin); conditions: NLRP3 inhibitory activity in human whole blood, 1 μg/ml LPS, 10 μM nigericin, read-out: HWB IC50
Method: For systemic delivery, the ability to inhibit NLRP3 when the compounds are present within the bloodstream is of great importance. For this reason, the NLRP3 inhibitory activity of a number of compounds in human whole blood was investigated in accordance with the following protocol.
Human whole blood in Li-heparin tubes was obtained from healthy donors from a volunteer donor panel. • 1. Plate out 80 μl of whole blood containing 1 μg/ml of LPS in 96-well, clear bottom cell culture plate (Corning #3585) • 2. Add 10 μl compound (8 points half-log dilution with 10 μM top dose) or vehicle (DMSO 0.1% FAC) to the appropriate wells • 3. Incubate for 3 hrs at 37° C., 5% CO2 • 4. Add 10 μl nigericin (Sigma #N7143) (10 μM FAC) to all wells • 5. Incubate for 1 hr at 37° C., 5% CO2 • 6. At the end of the incubation period, spin plates at 300×g for 5 mins to pellet cells and remove 20 μl of supernatant and add to 96-well v-bottom plates for IL-1β analysis (note: these plates containing the supernatants can be stored at −80° C. to be analysed at a later date) • 7. IL-1β was measured according to the manufacturer protocol (Perkin Elmer-AlphaLisa IL-1 Kit AL220F-5000) • 8. IC50 data is fitted to a non-linear regression equation (log inhibitor vs response-variable slope 4-parameters)

IC50 (NLRP3 [1]): ≤ 1 µM | IC50 (NLRP3 [2]): > 10 µM
Compound: O=C(Nc1c2c(cc3c1CCC3)CCC2)NS(=O)(=O)CCc1ccccc1 [Example 40, N-((1,2,3,5,6,7-Hexahydro-s-indacen-4-yl)carbamoyl)-2-phenylethanesulfonamide]
